Active and inactive are the calls of the source. No cut-off for these calls is given here.
Columns and labels:
Zika virus [1] = experiment: Antiviral activity against Zika virus infected in golden hamster BHK cells assessed as inhibition of virus induced cytopathic effect incubated for 6 to 8 days by CellTiter-Glo luminescent cell viability assay; assay type: functional, organism-based
Zika virus [2] = experiment: Antiviral activity against Zika virus infected in infected in golden hamster BHK cells assessed as inhibition of viral RNA production at stage III incubated for 24 hrs by qRT-PCR analysis; assay type: functional, organism-based
Zika virus [3] = experiment: Antiviral activity against Zika virus infected in golden hamster BHK cells assessed as inhibition of viral RNA production at stage IV pre-infected with virus for 2 hrs followed by compound addition and measured 24 hrs post infection by qRT-PCR analysis; assay type: functional, organism-based; details: time 22.0 hrs
Zika virus [4] = experiment: Inhibition of Zika virus NS5 MTase activity at 50 uM by chemiluminescence-based enzymatic assay system relative to control

SMILES | IC50 (Zika virus [1]) [µM] | further results
CNc1ncnc2c1ncn2[C@@H]1O[C@H](CNCc2ccc(C(F)(F)F)cc2)[C@@H](O)[C@H]1O | > 50 | –
CCN(CC)C[C@H]1O[C@@H](n2cnc3c(NCc4cccc(Cl)c4)ncnc32)[C@H](O)[C@@H]1O | 8.43 | –
CN(Cc1ccc(F)cc1)C[C@H]1O[C@@H](n2cnc3c(NCc4cccc(Cl)c4)ncnc32)[C@H](O)[C@@H]1O | 5.76 | –
O[C@@H]1[C@H](O)[C@@H](CNC2CCC2)O[C@H]1n1cnc2c(NCc3cccc(Cl)c3)ncnc21 | 7.28 | –
OC1CCN(C[C@H]2O[C@@H](n3cnc4c(NCc5cccc(Cl)c5)ncnc43)[C@H](O)[C@@H]2O)CC1 | > 50 | –
CCN1CCN(C[C@H]2O[C@@H](n3cnc4c(NCc5cccc(Cl)c5)ncnc43)[C@H](O)[C@@H]2O)CC1 | > 50 | –
O[C@@H]1[C@H](O)[C@@H](CNC2CCCC2)O[C@H]1n1cnc2c(NCc3cccc(Cl)c3)ncnc21 | 8.49 | –
O[C@@H]1[C@H](O)[C@@H](CNCc2ccc(C(F)(F)F)cc2)O[C@H]1n1cnc2c(NCc3cccc(F)c3)ncnc21 | 4.18 | –
O[C@@H]1[C@H](O)[C@@H](CNCc2ccc(C(F)(F)F)cc2)O[C@H]1n1cnc2c(NCc3cccc(C(F)(F)F)c3)ncnc21 | > 50 | –
CC(C)N1CCN(C[C@H]2O[C@@H](n3cnc4c(NCc5cccc(Cl)c5)ncnc43)[C@H](O)[C@@H]2O)CC1 | > 50 | –
O[C@@H]1[C@H](O)[C@@H](CNCc2ccc(C(F)(F)F)cc2)O[C@H]1n1cnc2c(NCc3ccc(Cl)cc3)ncnc21 | > 50 | –
O[C@@H]1[C@H](O)[C@@H](CNCc2ccc(OC(F)(F)F)cc2)O[C@H]1n1cnc2c(NCc3cccc(Cl)c3)ncnc21 | 2.04 | –
CCOC(=O)C1CCN(C[C@H]2O[C@@H](n3cnc4c(NCc5cccc(Cl)c5)ncnc43)[C@H](O)[C@@H]2O)CC1 | 26.8 | –
C#C[C@@]1(O)[C@H](O)[C@@H](CO)O[C@H]1n1ccc2c(N)ncnc21 | 0.85 | Activity (Zika virus [2]): Active; Activity (Zika virus [3]): Active
Nc1ncnc2c1ncn2[C@@H]1O[C@H](C[C@@H](N)CC[C@H](N)C(=O)O)[C@@H](O)[C@H]1O | – | inhibition (Zika virus [4]): 67.5%
O[C@@H]1[C@H](O)[C@@H](CNCc2ccc(C(F)(F)F)cc2)O[C@H]1n1cnc2c(NCc3ccccc3Cl)ncnc21 | > 50 | –
O[C@@H]1[C@H](O)[C@@H](CNCc2ccc(C(F)(F)F)cc2)O[C@H]1n1cnc2c(NCc3cccs3)ncnc21 | > 50 | –
O[C@@H]1[C@H](O)[C@@H](CN2CCC3(CCNCC3)CC2)O[C@H]1n1cnc2c(NCc3cccc(Cl)c3)ncnc21 | > 50 | –
O[C@@H]1[C@H](O)[C@@H](CNCc2ccncc2)O[C@H]1n1cnc2c(NCc3cccc(Cl)c3)ncnc21 | > 50 | –
O[C@@H]1[C@H](O)[C@@H](CNCc2ccc(F)cc2)O[C@H]1n1cnc2c(NCc3cccc(Cl)c3)ncnc21 | 3.35 | –
O[C@@H]1[C@H](O)[C@@H](CNCc2ccc(C(F)(F)F)cc2)O[C@H]1n1cnc2c(NCC3CCCCC3)ncnc21 | > 50 | –
O[C@@H]1[C@H](O)[C@@H](CNCc2cccc3ccccc23)O[C@H]1n1cnc2c(NCc3cccc(Cl)c3)ncnc21 | 3.58 | –
Cc1cccc(CNc2ncnc3c2ncn3[C@@H]2O[C@H](CNCc3ccc(C(F)(F)F)cc3)[C@@H](O)[C@H]2O)c1 | 5.55 | –
CC1CCCCN1C[C@H]1O[C@@H](n2cnc3c(NCc4cccc(Cl)c4)ncnc32)[C@H](O)[C@@H]1O (some centres undefined) | 5.67 | –

SMILES | IC50 (Zika virus [1]) [µM] | further results
CCNC[C@H]1O[C@@H](n2cnc3c(NCc4cccc(Cl)c4)ncnc32)[C@H](O)[C@@H]1O | 14.7 | –
O[C@@H]1[C@H](O)[C@@H](CN2CCOCC2)O[C@H]1n1cnc2c(NCc3cccc(Cl)c3)ncnc21 | > 50 | –
O[C@@H]1[C@H](O)[C@@H](CNCc2ccc(Cl)cc2)O[C@H]1n1cnc2c(NCc3cccc(Cl)c3)ncnc21 | 2.7 | –
CC1CCN(C[C@H]2O[C@@H](n3cnc4c(NCc5cccc(Cl)c5)ncnc43)[C@H](O)[C@@H]2O)CC1 | 6.58 | –
COc1cccc(CNc2ncnc3c2ncn3[C@@H]2O[C@H](CNCc3ccc(C(F)(F)F)cc3)[C@@H](O)[C@H]2O)c1 | 7.5 | –
CC(C)NC[C@H]1O[C@@H](n2cnc3c(NCc4cccc(Cl)c4)ncnc32)[C@H](O)[C@@H]1O | 6.36 | –
CCN(C)c1ncnc2c1ncn2[C@@H]1O[C@H](CNCc2ccc(C(F)(F)F)cc2)[C@@H](O)[C@H]1O | 24.9 | –
O[C@@H]1[C@H](O)[C@@H](CN2CCCCC2)O[C@H]1n1cnc2c(NCc3cccc(Cl)c3)ncnc21 | > 50 | –
O[C@@H]1[C@H](O)[C@@H](CNCc2cccs2)O[C@H]1n1cnc2c(NCc3cccc(Cl)c3)ncnc21 | 6.06 | –
O[C@@H]1[C@H](O)[C@@H](CNCc2ccc3ccccc3c2)O[C@H]1n1cnc2c(NCc3cccc(Cl)c3)ncnc21 | 1.45 | –
Oc1ccc(CNC[C@H]2O[C@@H](n3cnc4c(NCc5cccc(Cl)c5)ncnc43)[C@H](O)[C@@H]2O)cc1 | 25.8 | –
O[C@@H]1[C@H](O)[C@@H](CNC2CCCCC2)O[C@H]1n1cnc2c(NCc3cccc(Cl)c3)ncnc21 | 5.28 | –
O[C@@H]1[C@H](O)[C@@H](CNCc2ccccc2)O[C@H]1n1cnc2c(NCc3cccc(Cl)c3)ncnc21 | 4.57 | –
O=[N+]([O-])c1ccc(CNC[C@H]2O[C@@H](n3cnc4c(NCc5cccc(Cl)c5)ncnc43)[C@H](O)[C@@H]2O)cc1 | 7.52 | –
O[C@@H]1[C@H](O)[C@@H](CNCc2ccc(C(F)(F)F)cc2)O[C@H]1n1cnc2c(NCc3ccco3)ncnc21 | 13.2 | –
O[C@@H]1[C@H](O)[C@@H](CNCc2ccc(C(F)(F)F)cc2)O[C@H]1n1cnc2c(NCC3CCC3)ncnc21 | > 50 | –
O=C(NC[C@H]1O[C@@H](n2cnc3c(NCc4cccc(Cl)c4)ncnc32)[C@H](O)[C@@H]1O)c1ccc(F)cc1 | > 50 | –
O[C@@H]1[C@H](O)[C@@H](CNCc2ccc(Br)cc2)O[C@H]1n1cnc2c(NCc3cccc(Cl)c3)ncnc21 | 2.2 | –
O[C@@H]1[C@H](O)[C@@H](CN2CCCC2)O[C@H]1n1cnc2c(NCc3cccc(Cl)c3)ncnc21 | 17.5 | –
N#Cc1cccc(CNc2ncnc3c2ncn3[C@@H]2O[C@H](CNCc3ccc(C(F)(F)F)cc3)[C@@H](O)[C@H]2O)c1 | > 50 | –
COc1ccc(CNC[C@H]2O[C@@H](n3cnc4c(NCc5cccc(Cl)c5)ncnc43)[C@H](O)[C@@H]2O)cc1 | 5.01 | –
O[C@@H]1[C@H](O)[C@@H](CNCc2cccc(F)c2)O[C@H]1n1cnc2c(NCc3cccc(Cl)c3)ncnc21 | 5.76 | –
Nc1ncnc2c1ncn2[C@@H]1O[C@H](CNCc2ccc(C(F)(F)F)cc2)[C@@H](O)[C@H]1O | > 50 | –

Source: ChEMBL document CHEMBL5634125, “Investigation of novel 5'-amino adenosine derivatives with potential anti-Zika virus activity” (Eur J Med Chem, 2023)
